Measured values from US20090246250A1, “COATING COMPOSITIONS HAVING IMPROVED PERFORMANCE” (priority 2008, published 2009).
Square brackets hold non-standard residues; d marks the D form. Ends that are not written are not given here. AEEA = NCCOCCOCC(=O)O

Assays:
[1] = Vancomycin loading onto coated titanium bead (HCl elution, HPLC); assay type: binding; conditions: peptide/polymer + vancomycin mixture 30 mins 20° C., PBS washes, 100 mM HCl eluate by HPLC
Experimental: The experimental procedure used for the embodiments described above was as follows. […] All three components were mixed and then applied to the metal bead. […] All three components were mixed and then applied to the metal bead. […] The mixtures were applied to the metal beads and incubated for 30 mins at 20° C. with 700 rpm shaking. The beads were washed three times with 350 ul PBS. Beads were analyzed as follows: 200 ul of 100 mM HCl was added to each bead and incubated for 30 mins at 20° C. with 1,000 rpm shaking. The eluate from each bead was analyzed by HPLC using Phenomenex Luna 3 um column, 50×4.60 mm. Output was compared to a standard curve for vancomycin to determine the amount of vancomycin retained onto the metal bead.

[2] = test system: Staphylococcus aureus strain MZ100; assay: Tibia pin assay: coated titanium pins with vancomycin, bacterial cfu count; assay type: cell-based; set-up: key: —: “-” means no cfus; “many” means too many cfus to count, as they converge into one spot; conditions: 3 hours 37° C.
Source text: In this assay, titanium pins were used as a model for tibia pins. Briefly, sterile pins were first coated with biofunctional composition (“SEQ ID NO:124-linker-SEQ ID NO:122”) comprising a substrate-binding peptide having binding specificity for vancomycin (“SEQ ID NO:124”) linked to a substrate-binding peptide having binding specificity for metal (“SEQ ID NO:122”), or a composition of the invention formed from compound comprising the biofunctional composition covalently coupled to fatty acid. The respective coatings also include vancomycin bound thereto. The coated pins were then placed in a silicone tube containing liquid bacterial growth medium and inoculated with bacteria. After incubation, the pins were removed, and then the liquid growth medium was serially diluted. The serial dilutions were inoculated onto bacterial culture plates, the plates were incubated, and counted on the plates were bacterial colonies.
In this assay, test samples (biofunctional composition (Table 6, “BC”) or compositions 133, 134, 135, 136 139) each were used to coat a pin by incubating the test sample (in a range of from about 0.8 mM to about 1 mM) with 2.5 μl of a 10 mM vancomycin solution and PBS to a final volume of 250 μl in a microtube (3 pins per tube) for 60 minutes at room temperature with occasional agitation. In a piece of silicone tubing (1.5 mm inner diameter, 50 mm long), added is tryptic soy broth+0.2% glucose, the coated pin, and 10^3 colony forming units (cfu) of Staphylococcus aureus strain MZ100 in either a 20 μl inoculum, 40 μl inoculum, or 60 μl inoculum. The tubing is clamped closed, and the tubing is incubated for 37° C. for 3 hours. After 3 hours, serial dilutions (1:10, 1:100, 1:1000) were made of the culture media from each tubing, and 10 μl of the undiluted culture medium and of each dilution were spotted onto the bacterial culture plate. The bacterial culture plate was incubated overnight at 37° C., and then the cfus were counted. The results, a composite of different assay runs, are shown in Table 6 (“-” means no cfus; “many” means too many cfus to count, as they converge into one spot; “NT” means not tested).

Substance | Vancomycin Load [1] | cfu 1:10 ([2]; inoculum volume 20 μl) | cfu 1:100 ([2]; inoculum volume 20 μl) | cfu 1:1000 ([2]; inoculum volume 20 μl) | cfu undiluted ([2]; inoculum volume 20 μl) | cfu 1:10 ([2]; inoculum volume 40 μl) [cfu] | cfu 1:100 ([2]; inoculum volume 40 μl) [cfu] | cfu 1:1000 ([2]; inoculum volume 40 μl) | cfu undiluted ([2]; inoculum volume 40 μl) | cfu 1:10 ([2]; inoculum volume 60 μl) [cfu] | cfu 1:100 ([2]; inoculum volume 60 μl) [cfu] | cfu 1:1000 ([2]; inoculum volume 60 μl) | cfu undiluted ([2]; inoculum volume 60 μl)
SSSCLIDMYGVCHNFDGAYDSSRG-miniPeg-miniPeg-SSHRTNHKKNNPKKKNKTRGSSGK (SSSCLIDMYGVCHNFDGAYDSSRG[AEEA][AEEA]SSHRTNHKKNNPKKKNKTRGSSGK; not fully specified (bridges); printed as SSSCLIDMYGVCHNFDGAYDSSRG-miniPeg-miniPeg-SSHRTNHKKNNPKKKNKTRGSSGK; cysteine pairing not given here) [SEQ ID NO:163] | 54 pmol/cm2 |  |  |  |  |  |  |  |  |  |  |  | 
SSSCLIDMYGVCHNFDGAYDSSRG [Compound 134, AUD-AUD-AUD-AUD-SEQ ID NO:124-linker-SEQ ID NO:122] |  | — | — | — | — | 6 | 1 | — | many | 17 | 5 | — | many
MA-AHx-SSCLIDIYGVCHN FDAY-miniPeg-miniPeg-YFRAFRKFVKPFKRAFKGSSK(Biotin) [SEQ ID NO:165] | 1,700 pmol/cm2 |  |  |  |  |  |  |  |  |  |  |  | 
